Common to all, as to type: biochemical
The target of experiment [1] is T1, hmtThrRS (Homo sapiens, UniProt Q9BW92).
T1 construct: gene TARS2; mature form Leu20-Phe718, 699 residues, pET28, Ni-NTA, E. coli BL21(DE3), no reducing agent, dimer
T1 sequence (Q9BW92 20-718): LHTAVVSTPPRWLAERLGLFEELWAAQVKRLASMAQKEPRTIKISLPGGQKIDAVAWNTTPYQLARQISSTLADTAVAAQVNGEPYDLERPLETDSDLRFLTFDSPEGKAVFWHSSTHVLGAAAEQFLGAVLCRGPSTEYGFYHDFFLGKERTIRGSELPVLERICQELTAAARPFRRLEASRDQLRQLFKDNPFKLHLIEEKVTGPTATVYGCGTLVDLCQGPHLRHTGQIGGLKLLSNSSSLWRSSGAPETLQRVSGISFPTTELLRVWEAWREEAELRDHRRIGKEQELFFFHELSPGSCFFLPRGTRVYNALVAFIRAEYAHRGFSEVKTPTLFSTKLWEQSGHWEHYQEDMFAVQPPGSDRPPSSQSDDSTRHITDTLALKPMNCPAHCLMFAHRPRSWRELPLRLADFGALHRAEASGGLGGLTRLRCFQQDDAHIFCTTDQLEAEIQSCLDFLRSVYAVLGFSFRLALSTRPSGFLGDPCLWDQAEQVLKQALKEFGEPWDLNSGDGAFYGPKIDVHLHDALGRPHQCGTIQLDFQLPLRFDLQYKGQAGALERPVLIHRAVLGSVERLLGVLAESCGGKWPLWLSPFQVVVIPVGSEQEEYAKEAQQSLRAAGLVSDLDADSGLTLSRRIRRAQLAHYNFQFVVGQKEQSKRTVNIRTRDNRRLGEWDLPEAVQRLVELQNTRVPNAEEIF
Put plainly: tRNA mischarging, […]tRNA TLC. To be noted: noncognate; 100 mM Ser, E. coli tRNA-Thr, 10 mM MgCl2, pH 7.5.

For experiment [2], the target named is T2, hmtThrRS (Homo sapiens, UniProt Q9BW92, C409S/C506S/C603S).
T2 construct: gene TARS2; mature form Leu20-Phe718, 699 residues, pET28, Ni-NTA, E. coli BL21(DE3), no reducing agent, dimer
T2 sequence (Q9BW92 20-718 C409S/C506S/C603S): T1 sequence (Q9BW92 20-718) with C390S, C487S, C584S
Put plainly: tRNA aminoacylation and posttransfer editing, […]tRNA TLC, after preincubation. To be noted: covalent (S-nitrosation); 1 mM GSNO preincubation; C185 mutant (only Cys185 kept of the four sites).

The target in experiment [3] is T1, hmtThrRS. As to the kind of experiment: tRNA aminoacylation and mischarging, […]tRNA TLC, after preincubation; IBP-MS of modified Cys. To be noted: covalent (S-nitrosation, reversed by DTT); 1 uM enzyme preincubated with 1 or 5 mM GSNO, 37 C; pH 7.5, 10 mM MgCl2.
The target of experiment [4] is T3, hmtThrRS (Homo sapiens, UniProt Q9BW92, C185S/C506S/C603S).
T3 construct: gene TARS2; mature form Leu20-Phe718, 699 residues, pET28, Ni-NTA, E. coli BL21(DE3), no reducing agent, dimer
T3 sequence (Q9BW92 20-718 C185S/C506S/C603S): T1 sequence (Q9BW92 20-718) with C166S, C487S, C584S
As to the kind of experiment: tRNA aminoacylation and posttransfer editing, […]tRNA TLC, after preincubation. The conditions noted are these: covalent (S-nitrosation); 1 mM GSNO preincubation; C409 mutant (only Cys409 kept of the four sites).

For experiment [5], the target named is T4, hmtThrRS (Homo sapiens, UniProt Q9BW92, C185S/C409S/C603S).
T4 construct: gene TARS2; mature form Leu20-Phe718, 699 residues, pET28, Ni-NTA, E. coli BL21(DE3), no reducing agent, dimer
T4 sequence (Q9BW92 20-718 C185S/C409S/C603S): T1 sequence (Q9BW92 20-718) with C166S, C390S, C584S
Described as above. The conditions noted are these: covalent (S-nitrosation); 1 mM GSNO preincubation; C506 mutant (only Cys506 kept of the four sites).

Experiment [6] has as its target T5, hmtThrRS (Homo sapiens, UniProt Q9BW92, C185S/C409S/C506S).
T5 construct: gene TARS2; mature form Leu20-Phe718, 699 residues, pET28, Ni-NTA, E. coli BL21(DE3), no reducing agent, dimer
T5 sequence (Q9BW92 20-718 C185S/C409S/C506S): T1 sequence (Q9BW92 20-718) with C166S, C390S, C487S
Described as above. To be noted: covalent (S-nitrosation); 1 mM GSNO preincubation; C603 mutant (only Cys603 kept of the four sites).

The target in experiment [7] is T6, EcThrRS (Escherichia coli, UniProt P0A8M3).
T6 construct: gene thrS; purified enzyme, construct not described in main text
T6 sequence (P0A8M3 whole entry): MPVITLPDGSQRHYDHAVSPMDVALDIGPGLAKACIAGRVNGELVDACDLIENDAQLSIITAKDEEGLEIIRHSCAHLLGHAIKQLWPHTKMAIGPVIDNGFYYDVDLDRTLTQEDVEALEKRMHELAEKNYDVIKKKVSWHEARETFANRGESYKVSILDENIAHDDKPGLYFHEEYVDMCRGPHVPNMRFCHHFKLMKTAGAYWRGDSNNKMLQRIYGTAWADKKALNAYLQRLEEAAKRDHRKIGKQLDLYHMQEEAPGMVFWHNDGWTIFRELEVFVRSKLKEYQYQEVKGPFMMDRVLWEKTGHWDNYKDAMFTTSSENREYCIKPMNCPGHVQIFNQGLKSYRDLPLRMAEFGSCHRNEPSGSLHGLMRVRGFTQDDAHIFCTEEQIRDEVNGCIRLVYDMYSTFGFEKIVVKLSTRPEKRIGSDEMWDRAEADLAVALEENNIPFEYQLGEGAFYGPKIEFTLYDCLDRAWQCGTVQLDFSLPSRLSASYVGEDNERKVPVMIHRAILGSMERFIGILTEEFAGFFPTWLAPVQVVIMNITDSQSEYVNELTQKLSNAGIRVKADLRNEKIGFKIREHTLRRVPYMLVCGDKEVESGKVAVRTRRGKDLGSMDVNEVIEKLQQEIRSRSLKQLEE
As to the kind of experiment: tRNA aminoacylation, […]tRNA TLC. The conditions noted are these: 1 mM Thr, E. coli tRNA-Thr, 10 mM MgCl2, pH 7.5.

Experiment [8] has as its target T1, hmtThrRS. Put plainly: tRNA aminoacylation, […]tRNA TLC; ATP-PPi exchange. The conditions noted are these: 1 mM Thr, 10 uM E. coli tRNA-Thr, 10 mM MgCl2, pH 7.5.

Structures are written as SMILES. Changes are numbered by the printed parent chain.

Three molecules from publication PMC7337905, “Nitrosative stress inhibits aminoacylation and editing activities of mitochondrial threonyl-tRNA synthetase by S-nitrosation” (Nucleic Acids Research, 2020) can be followed below.

In the case of `N[C@@H](CO)C(=O)O` [Ser, L-Ser], the “tRNA mischarging, [32P]tRNA TLC” value in experiment [1] is “mischarging of tRNA^Thr with noncognate Ser was determined without or with H2O2 treatment”.

As for `N[C@@H](CCC(=O)N[C@@H](CSN=O)C(=O)NCC(=O)O)C(=O)O` [GSNO, S-nitrosoglutathione], the “tRNA aminoacylation and posttransfer editing, [32P]tRNA TLC, after preincubation” value was “Both activities for the four mutants were obviously inhibited after GSNO incubation” in experiment [2], “the inhibitory effect of GSNO on the C409 mutant was the most prominent” in experiment [4], “Both activities for the four mutants were obviously inhibited after GSNO incubation” in experiment [5] and “Both activities for the four mutants were obviously inhibited after GSNO incubation” in experiment [6]. In addition, the “tRNA aminoacylation and mischarging, [32P]tRNA TLC, after preincubation; IBP-MS” value in experiment [3] is “The resulting inhibition of both the aminoacylation and mischarging activities of hmtThrRS was dose-dependent”.

On to `C[C@@H](O)[C@H](N)C(=O)O` [Thr, L-Thr], for which, in experiment [7], the “tRNA aminoacylation, [32P]tRNA TLC” value was “aminoacylation activity of EcThrRS was assayed and compared”. Moreover, the “tRNA aminoacylation, [32P]tRNA TLC; ATP-PPi exchange” value in experiment [8] was “The synthesis of Thr-tRNA^Thr was obviously not affected by H2O2”.
